Data reported in paper PMC7083880 (Nature Communications, 2020).
“And” between values parts separate entries of the source, which are not always exact repeats. Equal entries are not always repeated.

Assays:
Type in all cases: cell-based, human
[1] = system: firefly luciferase (Fluc) gene with UGA nonsense codon at position 109 in HeLa cells; assay: Firefly luciferase readthrough assay, UGA PTC construct; conditions: for Luciferase activity, UGA PTC: G418 1mg/ml
Text: To identify the compounds responsible for this activity, a semi-preparative HPLC fractionation protocol was used. […] (Fig. 1b). DMSO and G418 were used, respectively, as a negative and a positive control.
The value of each luciferase measurement is presented in the Source Data File. All data shown in c, d are representative of two independent experiments. Source data are provided as a Source Data file.
HeLa cells were transfected with the FLuc-int-UGA construct using lipofectamine 3000 (Life technologies) according to the manufacturer’s recommendations. […] Steadylite plus luciferase substrate (Perkin Elmer, Waltham, MA, USA) was then added to each well before measuring the visible light from each well for 10 s with a Tristar luminometer (Berthold technologies, Versailles, France). The plate was read twice and the reported values are averages of the two reads.

[2] = system: firefly luciferase (Fluc) gene with UAG nonsense codon at position 109 in HeLa cells; assay: Firefly luciferase readthrough assay, UAG PTC construct; conditions: G418 1mg/ml
[3] = system: p53 readthrough protein in Calu-6 cells; assay: p53 function: luciferase under promoter with two p53-responsive elements, Calu-6
Text: The three leftmost lanes show twofold serial dilutions of untreated HeLa cell extract. The molecular weight is indicated to the left of each gel. b Schematic representation of the construct used to measure the function of p53. The construct carries a cDNA encoding the firefly luciferase under a promoter having two p53-responsive elements (underlined). […] The level of p21 mRNA is related to the amount of functional p53 protein synthesized in the cell. The results presented in panels b and c are representative of at least two independent experiments., p-values (p) were calculated using Student’s t-test. Source data are provided as a Source Data file.
Although DAP clearly promoted the synthesis of full-length proteins from UGA-nonsense-mutation-containing mRNAs, it was necessary to ascertain that the readthrough protein was functional. […] The first involved measuring the transcriptional activity of the p53 readthrough protein in Calu-6 cells transfected with an expression vector carrying the cDNA encoding firefly luciferase under the control of a promoter with two p53-responsive elements (Fig. 2b)[33]. Upon DMSO treatment, only basal luciferase activity was detected, reflecting promoter leakage (Fig. 2c). […] The second assay used the p53 target gene p21 (ref. [44]).

[4] = system: wild-type TP53 in HeLa cells; assay: p53 function: luciferase under promoter with two p53-responsive elements, HeLa
[5] = system: firefly luciferase (Fluc) gene with UAA nonsense codon at position 109 in HeLa cells; assay: Firefly luciferase readthrough assay, UAA PTC construct; conditions: for Luciferase activity, UAA PTC: G418 1mg/ml
[6] = system: nonsense-mediated mRNA decay (NMD) in Calu-6 cells; assay: NMD efficiency: p53 mRNA / GAPDH mRNA by RT-PCR; conditions: 24 h; for Ratio of p53 mRNA to GAPDH mRNA: 600µM
Procedure: Source data are provided as a Source Data file.
Total RNA was purified from Calu-6 cells after 24 h of treatment.
RNA was purified using RNazol (MRC) according to the manufacturer’s instructions. 1/5 of the RNA preparation was used for reverse-transcription (RT) PCR (RT-PCR) using Superscript II (Life Technologies) for 2 h at 42 °C in the presence of random hexamers. The resulting cDNAs were PCR amplified in the presence of dCTP(α^33P) (Perkin Elmer) with the following primers: GAPDH mRNA (sense: 5′-[…]-3′; antisense: 5′-[…]-3′), p53 mRNA (sense: 5′-[…]-3′; antisense: 5′-[…]-3′), p21 mRNA (sense: 5′-[…]-3′; antisense: 5′-[…]-3′). PCR products were quantified with Personal Molecular Imager and QuantityOne quantification software (Bio-Rad).

## CN[C@@H]1[C@@H](O)[C@@H](O[C@@H]2[C@@H](O)[C@H](O[C@H]3O[C@H]([C@@H](C)O)[C@@H](O)[C@H](O)[C@H]3N)[C@@H](N)C[C@H]2N)OC[C@]1(C)O [G418, reference compound]
[1]; 0.39µM, Exp. 1
  Luciferase activity, UGA PTC, dose response: 701.361
[1]; 0.39µM, Exp. 2
  Luciferase activity, UGA PTC, dose response: 678.75
[1]; 0.39µM, average
  Luciferase activity, UGA PTC, dose response: 690±16 and 690.055
[1]; 0.78µM, Exp. 1
  Luciferase activity, UGA PTC, dose response: 783.19
[1]; 0.78µM, Exp. 2
  Luciferase activity, UGA PTC, dose response: 761.5
[1]; 0.78µM, average
  Luciferase activity, UGA PTC, dose response: 772±15 and 772.345
[1]; 1.56µM, Exp. 1
  Luciferase activity, UGA PTC, dose response: 853.418
[1]; 1.56µM, Exp. 2
  Luciferase activity, UGA PTC, dose response: 829
[1]; 1.56µM, average
  Luciferase activity, UGA PTC, dose response: 841±17 and 841.209
[1]; 6.25µM, Exp. 1
  Luciferase activity, UGA PTC, dose response: 1017.65
[1]; 6.25µM, Exp. 2
  Luciferase activity, UGA PTC, dose response: 990.5
[1]; 6.25µM, average
  Luciferase activity, UGA PTC, dose response: 1004±19 and 1004.07
[1]; 25µM, Exp. 1
  Luciferase activity, UGA PTC, dose response: 1013.6
[1]; 25µM, Exp. 2
  Luciferase activity, UGA PTC, dose response: 986
[1]; 25µM, average
  Luciferase activity, UGA PTC, dose response: 1000±19 and 999.799
[1]; 100µM, Exp. 1
  Luciferase activity, UGA PTC, dose response: 1134.07
[1]; 100µM, Exp. 2
  Luciferase activity, UGA PTC, dose response: 1106
[1]; 100µM, average
  Luciferase activity, UGA PTC, dose response: 1120±20 and 1120.03
[1]; 300µM, Exp. 1
  Luciferase activity, UGA PTC, dose response: 1723.63
[1]; 300µM, Exp. 2
  Luciferase activity, UGA PTC, dose response: 1679.5
[1]; 300 µM, UGA
  Increase in luciferase activity relative to background level: about twice the background level
[1]; 300µM, average
  Luciferase activity, UGA PTC, dose response: 1702±31 and 1701.56
[1]; 600µM, Exp. 1
  Luciferase activity, UGA PTC, dose response: 1231.27
[1]; 600µM, Exp. 2
  Luciferase activity, UGA PTC, dose response: 1202
[1]; 600µM, average
  Luciferase activity, UGA PTC, dose response: 1217±21 and 1216.63
[1]; Fig. 1D, authors' reply in peer review file, removed from final text
  EC50: ~100 µM
[1]; Fig. 1D, peer review file
  Concentration of maximal efficacy, UGA readthrough (luciferase): 300 µM
[1]; Fig. 1c
  Correction of the UGA nonsense mutation (luciferase activity), in words: corrected the UGA more efficiently than the UAG nonsense mutation
[1]; average of 2 experiments
  Luciferase activity, UGA PTC: 8466.25±478 and 8466.25
[1]; experiment 1
  Luciferase activity, UGA PTC: 8804.5
[1]; experiment 2
  Luciferase activity, UGA PTC: 8128
[2]; average of 2 experiments
  Luciferase activity, UAG PTC: 2275.5±805 and 2275.5
[2]; experiment 1
  Luciferase activity, UAG PTC: 2845
[2]; experiment 2
  Luciferase activity, UAG PTC: 1706
[3]
  Luciferase activity under p53-responsive promoter, in words: remained at its background level
[3]; 25µM, average
  Luciferase activity, p53-responsive promoter construct (DMSO = 1): 1.04
[3]; 25µM, experiment 1
  Luciferase activity, p53-responsive promoter construct (DMSO = 1): 1.048
[3]; 25µM, experiment 2
  Luciferase activity, p53-responsive promoter construct (DMSO = 1): 0.7766
[3]; 25µM, experiment 3
  Luciferase activity, p53-responsive promoter construct (DMSO = 1): 1.295
[3]; 600µM, average
  Luciferase activity, p53-responsive promoter construct (DMSO = 1): 1.017
[3]; 600µM, experiment 1
  Luciferase activity, p53-responsive promoter construct (DMSO = 1): 1.299
[3]; 600µM, experiment 2
  Luciferase activity, p53-responsive promoter construct (DMSO = 1): 0.6289
[3]; 600µM, experiment 3
  Luciferase activity, p53-responsive promoter construct (DMSO = 1): 1.121
[4]; 25µM, FL922
  Luciferase activity, p53-responsive promoter construct (DMSO = 1): 0.9453
[4]; 25µM, FL932
  Luciferase activity, p53-responsive promoter construct (DMSO = 1): 0.904
[4]; 25µM, FL934
  Luciferase activity, p53-responsive promoter construct (DMSO = 1): 1.071
[4]; 25µM, average
  Luciferase activity, p53-responsive promoter construct (DMSO = 1): 0.9735
[4]; 600µM, FL922
  Luciferase activity, p53-responsive promoter construct (DMSO = 1): 0.9542
[4]; 600µM, FL932
  Luciferase activity, p53-responsive promoter construct (DMSO = 1): 0.6225
[4]; 600µM, FL934
  Luciferase activity, p53-responsive promoter construct (DMSO = 1): 1.017
[4]; 600µM, average
  Luciferase activity, p53-responsive promoter construct (DMSO = 1): 0.8645
[5]; Fig. 1c
  Correction of the UAA nonsense mutation (luciferase activity), in words: only weakly corrected the UAA nonsense mutation
[5]; average of 2 experiments
  Luciferase activity, UAA PTC: 495±34 and 495
[5]; experiment 1
  Luciferase activity, UAA PTC: 471
[5]; experiment 2
  Luciferase activity, UAA PTC: 519
[6]; average
  Ratio of p53 mRNA to GAPDH mRNA: 0.3943
[6]; experiment 1
  Ratio of p53 mRNA to GAPDH mRNA: 0.4107
[6]; experiment 2
  Ratio of p53 mRNA to GAPDH mRNA: 0.3778
[6]
  Increase in p53 mRNA: 1.8 fold
